The source made the active and inactive calls. No cut-off for these calls is given here.

The subject of one assay is A549. As to the kind of experiment: Growth inhibition of human A549 cells at 10 uM measured after 48 hrs by SRB assay relative to control. The assay is classed as functional. Particulars: read-out: GI. A general note: In SRB staining, fixed cells bind dye roughly in proportion to their protein.
For assay [1], the system named is Panel NCI-60 (60 carcinoma cell lines). As to the kind of experiment: Growth inhibition of human Panel NCI-60 (60 carcinoma cell lines) cells at 10 uM measured after 48 hrs by SRB assay relative to control. In kind it is functional. The note with it: read-out: GI.
Another assay has as its system UO-31. As to the kind of experiment: Growth inhibition of human UO-31 cells at 10 uM measured after 48 hrs by SRB assay relative to control. The assay is classed as functional. The note with it: read-out: GI.
For another assay, the system named is HOP-92. As to the kind of experiment: Growth inhibition of human HOP-92 cells at 10 uM measured after 48 hrs by SRB assay relative to control. In kind it is functional. The note with it: read-out: GI.
The test system of a further assay is T47D. As to the kind of experiment: Growth inhibition of human T47D cells at 10 uM measured after 48 hrs by SRB assay relative to control. The note with it: read-out: GI. The assay is classed as functional.
For another assay, the system named is PC-3. As to the kind of experiment: Growth inhibition of human PC-3 cells at 10 uM measured after 48 hrs by SRB assay relative to control. The assay is classed as functional. Particulars: read-out: GI.
For a further assay, the system named is RPMI-8226. As to the kind of experiment: Growth inhibition of human RPMI-8226 cells at 10 uM measured after 48 hrs by SRB assay relative to control. The assay is classed as functional. Particulars: read-out: GI.
In another assay the test system is HCT-116. As to the kind of experiment: Growth inhibition of human HCT-116 cells at 10 uM measured after 48 hrs by SRB assay relative to control. The assay is classed as functional. The note with it: read-out: GI.
A further assay relates to NCI-H522. As to the kind of experiment: Growth inhibition of human NCI-H522 cells at 10 uM measured after 48 hrs by SRB assay relative to control. The assay is classed as functional. Particulars: read-out: GI.
A further assay has as its system A498. As to the kind of experiment: Growth inhibition of human A498 cells at 10 uM measured after 48 hrs by SRB assay relative to control. In kind it is functional. Particulars: read-out: GI.
The subject of a further assay is SR. As to the kind of experiment: Growth inhibition of human SR cells at 10 uM measured after 48 hrs by SRB assay relative to control. In kind it is functional. Particulars: read-out: GI.
Another assay deals with 786-0. As to the kind of experiment: Growth inhibition of human 786-0 cells at 10 uM measured after 48 hrs by SRB assay relative to control. In kind it is functional. The note with it: read-out: GI.
The next assay has as its system HT-29. As to the kind of experiment: Growth inhibition of human HT-29 cells at 10 uM measured after 48 hrs by SRB assay relative to control. In kind it is functional. Particulars: read-out: GI.
In a further assay the test system is MOLT-4. As to the kind of experiment: Growth inhibition of human MOLT-4 cells at 10 uM measured after 48 hrs by SRB assay relative to control. The assay is classed as functional. Particulars: read-out: GI.
The test system of another assay is CCRF-CEM. As to the kind of experiment: Growth inhibition of human CCRF-CEM cells at 10 uM measured after 48 hrs by SRB assay relative to control. The assay is classed as functional. The note with it: read-out: GI.
The next assay deals with K562. As to the kind of experiment: Growth inhibition of human K562 cells at 10 uM measured after 48 hrs by SRB assay relative to control. In kind it is functional. Particulars: read-out: GI.
The species named for the next assay is Sus scrofa. As to the kind of experiment: Induction of porcine brain tubulin polymerization at 10 uM measured at 30 secs interval for 60 mins by fluorescence assay. In kind it is tissue-based.
Assay [2] concerns the target Serine/threonine-protein kinase B-raf (Homo sapiens, UniProt P15056). As to the kind of experiment: Inhibition of human BRAF using MEK1 (K97R) as substrate in presence of [gamma-33P]ATP by scintillation counting method.
For assay [3], the target named is Serine/threonine-protein kinase B-raf (Homo sapiens, UniProt P15056, V600E). As to the kind of experiment: Inhibition of human BRAF V600E mutant using MEK1 (K97R) as substrate in presence of [gamma-33P]ATP by scintillation counting method.
Assay [4] concerns the target RAF proto-oncogene serine/threonine-protein kinase (Homo sapiens, UniProt P04049). As to the kind of experiment: Inhibition of human CRAF using MEK1 (K97R) as substrate in presence of [gamma-33P]ATP by scintillation counting method.
Another assay is filed under the species Homo sapiens. As to the kind of experiment: Selectivity ratio of IC50 for inhibition of human BRAF V600E mutant to IC50 for inhibition of human CRAF.

Chain of RAF proto-oncogene serine/threonine-protein kinase (P04049 whole entry): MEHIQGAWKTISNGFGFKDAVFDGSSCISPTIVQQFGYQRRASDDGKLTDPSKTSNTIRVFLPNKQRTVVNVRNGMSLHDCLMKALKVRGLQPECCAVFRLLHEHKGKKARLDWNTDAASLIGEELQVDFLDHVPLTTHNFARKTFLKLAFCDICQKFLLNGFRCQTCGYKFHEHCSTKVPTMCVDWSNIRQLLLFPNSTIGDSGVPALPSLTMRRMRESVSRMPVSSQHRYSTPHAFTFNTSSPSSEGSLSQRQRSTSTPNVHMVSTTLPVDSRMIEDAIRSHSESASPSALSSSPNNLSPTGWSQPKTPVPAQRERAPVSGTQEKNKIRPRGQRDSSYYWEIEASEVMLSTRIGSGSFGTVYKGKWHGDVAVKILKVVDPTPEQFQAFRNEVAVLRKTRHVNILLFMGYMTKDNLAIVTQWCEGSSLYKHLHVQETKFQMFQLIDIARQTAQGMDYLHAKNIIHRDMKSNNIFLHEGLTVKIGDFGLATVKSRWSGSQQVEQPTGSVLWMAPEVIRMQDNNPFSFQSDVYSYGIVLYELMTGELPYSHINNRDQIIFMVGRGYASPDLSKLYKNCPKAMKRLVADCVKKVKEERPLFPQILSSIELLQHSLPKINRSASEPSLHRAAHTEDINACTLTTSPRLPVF
Chain of Serine/threonine-protein kinase B-raf (Homo sapiens, UniProt P15056, V600E) (P15056 2-766 V600E limits assumed): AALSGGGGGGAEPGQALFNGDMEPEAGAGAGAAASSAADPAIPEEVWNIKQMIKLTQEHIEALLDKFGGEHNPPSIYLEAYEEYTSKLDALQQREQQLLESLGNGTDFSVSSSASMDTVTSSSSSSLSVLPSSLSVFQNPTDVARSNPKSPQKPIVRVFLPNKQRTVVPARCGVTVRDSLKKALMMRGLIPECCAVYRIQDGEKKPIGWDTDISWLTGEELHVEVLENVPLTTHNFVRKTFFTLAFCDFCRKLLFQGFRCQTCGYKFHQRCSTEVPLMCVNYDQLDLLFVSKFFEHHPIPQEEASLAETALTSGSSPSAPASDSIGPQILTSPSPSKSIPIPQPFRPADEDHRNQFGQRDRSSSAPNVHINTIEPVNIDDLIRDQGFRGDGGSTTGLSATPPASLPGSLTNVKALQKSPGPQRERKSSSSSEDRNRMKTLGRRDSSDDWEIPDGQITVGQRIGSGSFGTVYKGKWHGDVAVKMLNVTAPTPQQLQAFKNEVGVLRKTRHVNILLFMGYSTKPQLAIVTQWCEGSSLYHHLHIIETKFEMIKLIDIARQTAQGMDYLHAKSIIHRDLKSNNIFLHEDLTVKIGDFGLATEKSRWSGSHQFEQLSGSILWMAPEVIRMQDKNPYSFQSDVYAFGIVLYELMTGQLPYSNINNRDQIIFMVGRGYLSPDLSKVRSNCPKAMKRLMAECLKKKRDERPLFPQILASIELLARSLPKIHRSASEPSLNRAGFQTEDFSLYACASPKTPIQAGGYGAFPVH
Chain of Serine/threonine-protein kinase B-raf (Homo sapiens, UniProt P15056) (P15056 whole entry): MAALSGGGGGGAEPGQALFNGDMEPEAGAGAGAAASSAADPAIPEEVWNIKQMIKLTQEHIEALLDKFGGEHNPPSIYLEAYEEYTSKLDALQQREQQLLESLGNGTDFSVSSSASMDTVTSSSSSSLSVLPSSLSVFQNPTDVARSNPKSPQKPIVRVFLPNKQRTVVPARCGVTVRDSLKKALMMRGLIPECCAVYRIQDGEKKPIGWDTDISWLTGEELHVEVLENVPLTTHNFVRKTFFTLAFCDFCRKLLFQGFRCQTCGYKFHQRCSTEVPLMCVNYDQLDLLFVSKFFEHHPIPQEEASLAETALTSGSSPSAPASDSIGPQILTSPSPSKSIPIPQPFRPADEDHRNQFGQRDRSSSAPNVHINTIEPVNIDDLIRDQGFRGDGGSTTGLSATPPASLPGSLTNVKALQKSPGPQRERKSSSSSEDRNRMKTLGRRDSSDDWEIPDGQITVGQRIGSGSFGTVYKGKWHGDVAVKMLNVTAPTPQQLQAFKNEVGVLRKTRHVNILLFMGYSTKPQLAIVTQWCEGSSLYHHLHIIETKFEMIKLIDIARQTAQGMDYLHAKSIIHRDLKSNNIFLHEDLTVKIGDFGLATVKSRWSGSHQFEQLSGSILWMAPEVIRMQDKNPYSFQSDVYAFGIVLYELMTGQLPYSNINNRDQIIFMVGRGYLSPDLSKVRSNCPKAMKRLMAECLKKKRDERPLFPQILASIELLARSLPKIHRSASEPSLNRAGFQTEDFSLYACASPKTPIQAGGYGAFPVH

Consider `COc1cccc2nc(Nc3cccc(NC(=O)c4ccc(Cl)c(C(F)(F)F)c4)c3)ccc12`, for which the inhibition of growth at 10 µM in the assay with A549 is < 20%; in assay [1], 12.9%; in the assay on UO-31, 37.6%; in the assay on HOP-92, 21.5%; in the assay on T47D, 21.3%; with PC-3, 50.3%. Moreover, the inhibition of growth at 10 µM was 31.8% in the assay on RPMI-8226; < 20% with HCT-116; 27.4% in the assay with NCI-H522; 27.5% in the assay with A498; 48% in the assay on SR; < 20% in the assay with 786-0. Moreover, the inhibition of growth at 10 µM was < 20% in the assay with HT-29, 54.8% in the assay on MOLT-4, 32.9% with CCRF-CEM and 56.8% with K562.

With `CC(=O)O[C@H]1C(=O)[C@@]2(C)[C@H]([C@H](OC(=O)c3ccccc3)[C@]3(O)C[C@H](OC(=O)[C@H](O)[C@@H](NC(=O)c4ccccc4)c4ccccc4)C(C)=C1C3(C)C)[C@]1(OC(C)=O)CO[C@@H]1C[C@@H]2O`, in the assay listed under Sus scrofa, the result was Active.

The term IC50 denotes the point on the concentration scale where inhibition reaches its midpoint. As for `COc1cccc2nc(Nc3cccc(NC(=O)c4cc(C(F)(F)F)cc(C(F)(F)F)c4)c3)ccc12`, the inhibition of growth at 10 µM was 48% with A549; 13.6% in assay [1]; 28.2% with UO-31; 67.5% in the assay on HOP-92; < 20% in the assay on T47D; 62.7% in the assay on PC-3. The inhibition of growth at 10 µM was 41.9% with RPMI-8226; < 20% in the assay with HCT-116; 23.5% with NCI-H522; 28.6% in the assay on A498; 57.4% with SR; < 20% in the assay with 786-0. In addition, the inhibition of growth at 10 µM is < 20% with HT-29, 65.2% with MOLT-4, 34.4% in the assay on CCRF-CEM and 77.3% with K562. The IC50 in assay [2] is > 100 µM; in assay [3] it was 9.45 µM; in [4], 4.79 µM.

On to `COc1cccc2nc(Nc3cccc(NC(=O)c4cc(N5CCOCC5)cc(C(F)(F)F)c4)c3)ccc12`, for which the inhibition of growth at 10 µM in [1] worked out at 38.3%. Besides, the results for the IC50 in assay [2], in assay [3] and in assay [4] were 5.87 µM, 1.49 µM and 0.616 µM, respectively. Moreover, in the assay filed under Homo sapiens, the Ratio IC50 amounted to 2.

Consider `COc1cccc2nc(Nc3ccc(NC(=O)c4ccc(Cl)c(C(F)(F)F)c4)cc3)ccc12`, for which the inhibition of growth at 10 µM was < 20% in the assay with A549; 6.32% in [1]; < 20% in the assay with UO-31; 32% in the assay with HOP-92; < 20% in the assay with T47D; < 20% in the assay on PC-3. Besides, the inhibition of growth at 10 µM was < 20% in the assay with RPMI-8226; < 20% in the assay on HCT-116; < 20% with NCI-H522; 22.6% in the assay on A498; < 20% in the assay on SR; < 20% with 786-0. In addition, the inhibition of growth at 10 µM in the assay with HT-29 is 21.8%; with MOLT-4, 27.6%; in the assay with CCRF-CEM, < 20%; in the assay on K562, 47.5%.

For `COc1cccc2nc(Nc3ccc(NC(=O)c4ccc5c(c4)OCCO5)cc3)ccc12`, the inhibition of growth at 10 µM in the assay on A549 is < 20%; in assay [1], -1.17%; with UO-31 it was < 20%; with HOP-92, < 20%; in the assay with T47D it was < 20%; with PC-3 it was < 20%. The inhibition of growth at 10 µM in the assay with RPMI-8226, in the assay with HCT-116, in the assay with NCI-H522, with A498, in the assay on SR and with 786-0 was < 20% each time. Moreover, the inhibition of growth at 10 µM with HT-29, with MOLT-4, in the assay on CCRF-CEM and in the assay on K562 was < 20% in each case.

As to `COc1cccc2nc(Nc3cccc(NC(=O)c4ccc5c(c4)OCCO5)c3)ccc12`, the inhibition of growth at 10 µM in the assay with A549 was < 20%; in assay [1] it was 17.8%; in the assay on UO-31, < 20%; in the assay on HOP-92, < 20%; in the assay on T47D, 46%; in the assay with PC-3, 32.1%. Further, the inhibition of growth at 10 µM is 39.7% in the assay with RPMI-8226; 32.5% in the assay on HCT-116; < 20% with NCI-H522; 26.2% with A498; 56.7% in the assay on SR; 48.3% in the assay with 786-0. Besides, the inhibition of growth at 10 µM in the assay on HT-29 was < 20%; in the assay with MOLT-4, 75.2%; in the assay on CCRF-CEM, 33.4%; with K562 it was 67.8%.

For `COc1cccc2nc(Nc3cccc(NC(=O)c4cccc(Cl)n4)c3)ccc12`, the inhibition of growth at 10 µM was < 20% in the assay on A549; 4.88% in [1]; < 20% in the assay on UO-31; < 20% with HOP-92; < 20% in the assay on T47D; 20.6% with PC-3. For the same molecule, the inhibition of growth at 10 µM is < 20% in the assay on RPMI-8226; < 20% in the assay on HCT-116; < 20% in the assay with NCI-H522; 32.4% in the assay on A498; < 20% with SR; < 20% with 786-0. Further, the inhibition of growth at 10 µM was < 20% with HT-29, 23.3% in the assay with MOLT-4, < 20% with CCRF-CEM and < 20% with K562.

For the molecule `COc1cccc2nc(Nc3cccc(NC(=O)c4ccc5ncccc5c4)c3)ccc12`, the inhibition of growth at 10 µM with A549 came out at 20.9%; in [1] it was 28.6%; with UO-31 it was 22.9%; with HOP-92, 48.5%; with T47D it was 58%; with PC-3 it was 56.2%. The inhibition of growth at 10 µM in the assay on RPMI-8226 was 94.6%; with HCT-116, 53.3%; in the assay on NCI-H522, < 20%; in the assay on A498, < 20%; in the assay on SR it was 55.9%; in the assay with 786-0, 51.4%. Besides, the inhibition of growth at 10 µM came to 42.4% in the assay with HT-29, 64.2% in the assay on MOLT-4, 36.9% in the assay with CCRF-CEM and 61.1% in the assay on K562.

For `COc1cccc2nc(Nc3cccc(NC(=O)c4ccc(N5CCOCC5)c(C(F)(F)F)c4)c3)ccc12`, the inhibition of growth at 10 µM in assay [1] turned out to be 59%; with HT-29, 87.2%. For the same molecule, the IC50 in assay [2] turned out to be 40.9 µM; in assay [3], 4.57 µM; in assay [4], 1.44 µM. Moreover, the Ratio IC50 in the assay listed under Homo sapiens amounted to 2.

Take `COc1cccc2nc(Nc3cccc(NC(=O)c4cc(-n5cnc(C)c5)cc(C(F)(F)F)c4)c3)ccc12`: the inhibition of growth at 10 µM in [1] is 32.6%. For the same molecule, the results for the IC50 in assay [2], in assay [3] and in assay [4] were 9.28 µM, 1.1 µM and 0.414 µM, respectively. Moreover, the Ratio IC50 in the assay listed under Homo sapiens was determined as 2.
